Laboratory results published in the supplement of paper PMC10307832.

What was measured:
[1] = compound: COC1=CC=C(C=C1)CN2C=CC3=C2C=C(C=C3)C(=O)NO; test: relative viability (nuclei count vs DMSO), 5 days (fraction); higher = more cells survive
How it was run: (§1)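 Vehicle-anchored 1536-well plates of lung cancer cell lines, held overnight at 37 °C, were pinned with five library-drug doses (not always all listed) spaced by √10. No medium change followed over the next 5 days, after which the cells were fixed, permeabilised and Hoechst-stained together and imaged at 4×. Nuclei were counted with MetaXpress, and viability is treated-well nuclei over vehicle-well nuclei, taken as a median across plates. Plates passed with control CV below 25% and at least one doubling.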

[2] = compound: C[C@]1(c2nc3c(C(N)=O)cccc3[nH]2)CCCN1 [Veliparib]; test: as above
How it was run: as §1

| Cell Line | relative viability ([1]; 0.08 µM) | relative viability ([1]; 0.253 µM) | relative viability ([1]; 0.8 µM) | relative viability ([1]; 2.53 µM) | relative viability ([1]; 8 µM) | relative viability ([2]; 0.02 µM) | relative viability ([2]; 0.06325 µM) | relative viability ([2]; 0.2 µM) | relative viability ([2]; 0.6325 µM) | relative viability ([2]; 2 µM) |
| --- | --- | --- | --- | --- | --- | --- | --- | --- | --- | --- |
| NCI-H520 | 0.708 | 1.04 | 1.03 | 1.04 | 0.97 | 0.977 | 0.975 | 0.97 | 0.87 | 0.993 |
| NCI-H522 | – | 0.946 | 0.968 | 0.869 | 0.793 | 0.947 | 0.958 | 0.912 | 1.07 | 1.04 |
| NCI-H596 | 0.962 | 1.1 | 1.08 | 0.989 | 0.947 | 0.932 | 0.933 | 0.966 | 0.93 | 0.908 |
| NCI-H647 | 0.754 | 0.909 | 1.02 | 0.989 | 0.869 | 1.02 | 0.945 | 1.03 | 0.813 | 1.03 |
| NCI-H650 | 0.903 | 0.834 | 0.888 | 0.949 | 0.891 | 0.765 | 0.799 | 0.834 | 0.783 | 0.731 |
| NCI-H661 | – | 0.981 | 0.96 | 0.958 | 0.892 | 0.963 | 0.918 | 0.945 | 0.929 | 1 |
| NCI-H727 | 0.853 | 0.941 | 0.899 | 0.983 | 0.927 | 0.941 | 0.913 | 1.06 | 0.897 | 1 |
| NCI-H838 | – | 1.01 | 0.964 | 0.98 | 0.871 | 1.05 | 0.909 | 0.974 | 0.9 | 1.02 |
| NCI-H1299 | 1.01 | 1.04 | 1.03 | 1.02 | 0.99 | 0.993 | 1 | 1.01 | 0.968 | 1.02 |
| NCI-H1355 | 0.814 | 0.996 | 0.987 | 0.995 | 0.874 | – | 0.835 | 1.03 | 0.943 | 0.944 |
| NCI-H1395 | 0.752 | 0.915 | 0.877 | 0.963 | 0.753 | 0.594 | 0.655 | 0.791 | 0.817 | 0.692 |
| NCI-H1437 | 0.912 | 0.978 | 1.05 | 1.06 | 1.05 | 0.815 | 0.958 | 0.971 | 0.972 | 0.963 |
| NCI-H1563 | 0.843 | 1.09 | 0.955 | 0.968 | 0.908 | 0.851 | 0.953 | 0.956 | 0.966 | 1.05 |
| NCI-H1623 | 0.812 | 0.975 | 0.999 | 0.982 | 0.897 | 0.762 | 0.883 | 0.959 | 1.01 | 0.984 |
| NCI-H1648 | 1 | 0.875 | 1.01 | 0.991 | 0.735 | 1.08 | 0.94 | 0.738 | 0.944 | 0.81 |
| NCI-H1650 | 0.787 | 0.87 | 1.01 | 0.946 | 0.689 | – | 0.846 | 1.01 | 0.875 | 0.874 |
| NCI-H1651 | 0.918 | 0.963 | 0.969 | 0.91 | 0.926 | 0.977 | 0.906 | 0.96 | 0.882 | 0.915 |
| NCI-H1666 | 0.891 | 0.99 | 1.09 | 1.03 | 1.03 | 0.943 | 0.976 | 0.981 | 0.876 | 0.937 |

| Cell Line | relative viability ([1]; 0.08 µM) | relative viability ([1]; 0.253 µM) | relative viability ([1]; 0.8 µM) | relative viability ([1]; 2.53 µM) | relative viability ([1]; 8 µM) | relative viability ([2]; 0.02 µM) | relative viability ([2]; 0.06325 µM) | relative viability ([2]; 0.2 µM) | relative viability ([2]; 0.6325 µM) | relative viability ([2]; 2 µM) |
| --- | --- | --- | --- | --- | --- | --- | --- | --- | --- | --- |
| NCI-H1703 | 0.699 | 1.07 | 0.959 | 0.956 | 0.904 | 0.816 | 0.839 | 0.852 | 0.878 | 1.11 |
| NCI-H1734 | – | 0.957 | 1.16 | 1.02 | 0.73 | 0.82 | 0.857 | 0.957 | 0.858 | 0.997 |
| NCI-H1755 | 0.869 | 1.03 | 0.965 | 0.993 | 0.973 | 1.02 | 0.957 | 1.02 | 0.913 | 0.963 |
| NCI-H1792 | 0.952 | 0.883 | 0.99 | 0.766 | 0.795 | 0.825 | 0.694 | 0.943 | 0.966 | 0.718 |
| NCI-H1793 | – | 1 | 1.02 | 1.03 | 1.01 | 0.881 | 0.923 | 0.904 | 0.865 | 0.932 |
| NCI-H1915 | 0.888 | 0.992 | 1.02 | 0.982 | 0.881 | 0.949 | 0.881 | 0.786 | 0.9 | 0.928 |
| NCI-H1944 | – | 0.986 | 0.987 | 0.947 | 0.955 | 0.878 | 0.961 | 0.765 | 0.789 | 0.894 |
| NCI-H1975 | 0.862 | 0.976 | 0.923 | 0.979 | 0.872 | 1.03 | 0.876 | 0.903 | 0.884 | 0.861 |
| NCI-H1993 | 0.932 | 0.9 | 1.06 | 0.969 | 0.888 | 0.693 | 0.883 | 0.87 | 1.05 | 0.929 |
| NCI-H2009 | 0.926 | 0.978 | 1.01 | 0.993 | 0.913 | 0.918 | 0.922 | 0.972 | 0.931 | 1.1 |
| NCI-H2023 | 0.908 | 1.02 | 1.02 | 0.949 | 0.87 | 0.853 | 0.939 | 0.919 | 0.85 | 0.928 |
| NCI-H2085 | 1.01 | 0.991 | 1.04 | 0.996 | 0.968 | 0.851 | 0.999 | 0.983 | 0.922 | 1.01 |
| NCI-H2087 | 0.913 | 1 | 1.19 | 0.935 | 0.85 | 0.854 | 0.97 | 0.936 | 0.955 | 1.05 |
| NCI-H2126 | 0.99 | 1.03 | 1.03 | 1.02 | 0.942 | 0.986 | 0.926 | 0.984 | 0.985 | 0.999 |
| NCI-H2170 | 0.973 | 0.994 | 0.977 | 0.98 | 0.906 | 0.989 | 0.954 | 0.967 | 0.96 | 0.991 |
| NCI-H2228 | 1.06 | 1.05 | 0.996 | 1.07 | 0.851 | 0.909 | 1.08 | 1.15 | 0.954 | 0.932 |
| NCI-H2342 | 0.946 | 0.973 | 0.992 | 0.997 | 0.827 | 0.966 | 0.968 | 0.94 | 0.873 | 0.979 |
